10 compounds from patent US10562912B2 (C&C Research Laboratories, priority 2013, dated 2020) can be followed below.

What all share (type): cell-based
One assay has as its target T1, STAT3 (Homo sapiens, UniProt P40763).
T1 construct: plasmid pSTAT3-TA-luc), which contains a stably operating STAT3 promoter; endogenous in cells
The assay is described as follows: STAT3 reporter gene assay (luciferase), LNCaP stable cell line (pSTAT3-TA-luc), IL-6 stimulation. The gist of the method: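 Cytotoxicity was run on a duplicate plate with CellTiter-Glo, while the other plate gave luciferase read-outs from lysed LNCaP pSTAT3-TA-luc reporter cells. Cells were treated with graded compound concentrations plus IL-6 (10 ng/mL final) for 24–48 h in 3% DCC-FBS medium. Unstimulated and stimulated wells served as negative and positive controls.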

In another assay the test system is LNCaP. The assay is described as follows: Cell growth inhibition assay, prostate cancer cell line LNCaP (medium with 10 ng/mL IL-6). Particulars: Homo sapiens, medium supplemented with 10 ng/mL of IL-6, 10,000 cells/well.
The test system of another assay is DU-145. The experiment in a line: Cell growth inhibition assay, prostate cancer cell line DU-145. As to conditions: Homo sapiens, DU-145 prostate cancer cell line. The essentials: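 Readout was CellTiter-Glo luminescence after 72–96 h of compound exposure at 37 °C, 5% CO2. Plating density was 3,000 cells/well for DU-145 and HCT116 and 5,000 cells/well for SW626. Controls were 0.1% DMSO wells and medium-only wells.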

T1 sequence (P40763 whole entry): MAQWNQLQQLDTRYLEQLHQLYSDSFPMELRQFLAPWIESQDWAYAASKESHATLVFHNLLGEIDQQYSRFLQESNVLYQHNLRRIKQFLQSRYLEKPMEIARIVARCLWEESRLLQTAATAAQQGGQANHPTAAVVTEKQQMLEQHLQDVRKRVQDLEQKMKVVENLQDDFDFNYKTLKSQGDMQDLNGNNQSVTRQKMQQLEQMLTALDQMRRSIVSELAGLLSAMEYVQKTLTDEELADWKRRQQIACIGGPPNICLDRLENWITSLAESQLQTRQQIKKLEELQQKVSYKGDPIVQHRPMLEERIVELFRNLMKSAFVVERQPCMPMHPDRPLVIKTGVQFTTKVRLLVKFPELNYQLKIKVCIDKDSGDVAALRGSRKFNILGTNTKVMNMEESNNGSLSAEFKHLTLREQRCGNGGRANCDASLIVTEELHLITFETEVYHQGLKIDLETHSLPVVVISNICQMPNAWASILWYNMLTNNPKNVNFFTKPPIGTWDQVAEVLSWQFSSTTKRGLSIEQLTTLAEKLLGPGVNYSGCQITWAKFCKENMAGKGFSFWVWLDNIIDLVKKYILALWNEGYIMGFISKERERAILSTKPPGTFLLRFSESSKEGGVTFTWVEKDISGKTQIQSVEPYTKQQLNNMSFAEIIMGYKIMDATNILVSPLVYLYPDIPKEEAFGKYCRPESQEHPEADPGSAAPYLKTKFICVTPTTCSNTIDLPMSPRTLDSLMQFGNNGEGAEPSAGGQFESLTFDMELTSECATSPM

As to `CS(=O)(=O)Nc1ccc2sc(C(=O)Nc3cc(Cl)cc(Oc4ccc(F)c(Cl)c4)c3)cc2c1` [Example 461, N-(3-chloro-5-(3-chloro-4-fluorophenoxy)phenyl)-5-(methylsulfonamido)benzo[b]thiophene-2-carboxamide], the IC50 worked out at 0.14 µM at STAT3, 0.24 µM in the assay on LNCaP and 0.11 µM with DU-145.
For `CS(=O)(=O)Nc1ccc2sc(C(=O)Nc3cc(Cl)cc(Oc4ccc(Cl)cc4Cl)c3)cc2c1` [Example 462, N-(3-chloro-5-(2,4-dichlorophenoxy)phenyl)-5-(methylsulfonamido)benzo[b]thiophene-2-carboxamide] the same measures were 0.13 µM, 0.33 µM and 0.13 µM.
For `CS(=O)(=O)Nc1ccc2sc(C(=O)Nc3cc(Cl)cc(Oc4cc(F)cc(F)c4)c3)cc2c1` [Example 463, N-(3-chloro-5-(3,5-difluorophenoxy)phenyl)-5-(methylsulfonamido)benzo[b]thiophene-2-carboxamide] the same measures were 0.19 µM, 0.27 µM and 0.15 µM.
The matching figures for `CS(=O)(=O)Nc1ccc2sc(C(=O)Nc3cc(Cl)cc(Oc4cc(Cl)cc(Cl)c4)c3)cc2c1` [Example 464, N-(3-chloro-5-(3,5-dichlorophenoxy)phenyl)-5-(methylsulfonamido)benzo[b]thiophene-2-carboxamide]: 0.17 µM, 0.31 µM and 0.16 µM.
On to `CS(=O)(=O)Nc1ccc2sc(C(=O)Nc3cc(Cl)cc(Oc4ccc(C(F)(F)F)cc4)c3)cc2c1` [Example 465, N-(3-chloro-5-(4-(trifluoromethyl)phenoxy)phenyl)-5-(methylsulfonamido)benzo[b]thiophene-2-carboxamide], for which the IC50 against STAT3 turned out to be 0.12 µM; in the assay on LNCaP, 0.063 µM; in the assay on DU-145, 0.048 µM.
Regarding `CS(=O)(=O)Nc1ccc2sc(C(=O)Nc3cc(Cl)cc(Oc4ccc(Cl)c(F)c4)c3)cc2c1` [Example 466, N-(3-chloro-5-(4-chloro-3-fluorophenoxy)phenyl)-5-(methylsulfonamido)benzo[b]thiophene-2-carboxamide], the IC50 against STAT3 was found to be 0.12 µM; with LNCaP, 0.079 µM; in the assay with DU-145, 0.063 µM.
Consider `CS(=O)(=O)Nc1ccc2sc(C(=O)Nc3cc(Cl)cc(Oc4cc(Cl)cc(OC(F)(F)F)c4)c3)cc2c1` [Example 467, N-(3-chloro-5-(3-chloro-5-(trifluoromethoxy)phenoxy)phenyl)-5-(methylsulfonamido)benzo[b]thiophene-2-carboxamide], for which the half-inhibitory concentration (IC50) against STAT3 was found to be 0.22 µM; in the assay on LNCaP it was 0.039 µM; with DU-145, 0.048 µM.
The matching figures for `CS(=O)(=O)Nc1ccc2sc(C(=O)Nc3cc(Cl)cc(Oc4ccc(Cl)c(OC(F)(F)F)c4)c3)cc2c1` [Example 468, N-(3-chloro-5-(4-chloro-3-(trifluoromethoxy)phenoxy)phenyl)-5-(methylsulfonamido)benzo[b]thiophene-2-carboxamide]: 0.17 µM, 0.04 µM and 0.028 µM.
In the case of `CS(=O)(=O)Nc1ccc2sc(C(=O)Nc3cc(Cl)cc(Oc4cc(F)cc(Cl)c4)c3)cc2c1` [Example 469, N-(3-chloro-5-(3-chloro-5-fluorophenoxy)phenyl)-5-(methylsulfonamido)benzo[b]thiophene-2-carboxamide], the half-maximal inhibitory concentration (IC50) at STAT3 amounted to 0.36 µM; with LNCaP, 0.12 µM; in the assay on DU-145 it was 0.086 µM.
The matching figures for `CS(=O)(=O)Nc1ccc2sc(C(=O)Nc3cc(Cl)cc(Oc4ccc(F)c(OC(F)(F)F)c4)c3)cc2c1` [Example 470, N-(3-chloro-5-(4-fluoro-3-(trifluoromethoxy)phenoxy)phenyl)-5-(methylsulfonamido)benzo[b]thiophene-2-carboxamide]: 0.32 µM, 0.067 µM and 0.043 µM.
